Laboratory results as given in PubChem BioAssay (NCI).
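Growth conditions: 96-well plates. Treatment: test compound, 48 hours, 5 concentrations. Analysis: linear interpolation between bracketing concentrations; unreached endpoints set to highest concentration. GI50 is the concentration that inhibits growth by half. TGI denotes the concentration required for complete inhibition of growth.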

How the values were obtained:
Assay in all cases: NCI tumour cell line growth inhibition, 48 h
786-0 renal = tested on: 786-0 renal
A498 renal = tested on: A498 renal
A549 NSCLC = tested on: A549 NSCLC
ACHN renal = tested on: ACHN renal
BT-549 breast = tested on: BT-549 breast
CAKI-1 renal = tested on: CAKI-1 renal
CCRF-CEM leukemia = tested on: CCRF-CEM leukemia
COLO 205 colon = tested on: COLO 205 colon
DU-145 prostate = tested on: DU-145 prostate
EKVX NSCLC = tested on: EKVX NSCLC
HCC-2998 colon = tested on: HCC-2998 colon
HCT-116 colon = tested on: HCT-116 colon
HCT-15 colon = tested on: HCT-15 colon
HL-60(TB) leukemia = tested on: HL-60(TB) leukemia
HOP-62 NSCLC = tested on: HOP-62 NSCLC
HOP-92 NSCLC = tested on: HOP-92 NSCLC
HS 578T breast = tested on: HS 578T breast
HT29 colon = tested on: HT29 colon
IGROV1 ovarian = tested on: IGROV1 ovarian
K-562 leukemia = tested on: K-562 leukemia
KM12 colon = tested on: KM12 colon
LOX IMVI melanoma = tested on: LOX IMVI melanoma
M14 melanoma = tested on: M14 melanoma
MCF7 breast = tested on: MCF7 breast
MDA-MB-231 breast = tested on: MDA-MB-231 breast
MDA-MB-435 = tested on: MDA-MB-435
MOLT-4 leukemia = tested on: MOLT-4 leukemia
NCI-H226 lung = tested on: NCI-H226 lung
NCI-H23 lung = tested on: NCI-H23 lung
NCI-H460 lung = tested on: NCI-H460 lung
NCI-H522 lung = tested on: NCI-H522 lung
NCI/ADR-RES ovarian = tested on: NCI/ADR-RES ovarian
OVCAR-3 ovarian = tested on: OVCAR-3 ovarian
OVCAR-4 ovarian = tested on: OVCAR-4 ovarian
OVCAR-5 ovarian = tested on: OVCAR-5 ovarian
OVCAR-8 ovarian = tested on: OVCAR-8 ovarian
PC-3 prostate = tested on: PC-3 prostate
RPMI-8226 leukemia = tested on: RPMI-8226 leukemia
RXF 393 renal = tested on: RXF 393 renal
SF-268 CNS = tested on: SF-268 CNS
SF-295 CNS = tested on: SF-295 CNS
SF-539 CNS = tested on: SF-539 CNS
SK-MEL-2 melanoma = tested on: SK-MEL-2 melanoma
SK-MEL-28 melanoma = tested on: SK-MEL-28 melanoma
SK-MEL-5 melanoma = tested on: SK-MEL-5 melanoma
SK-OV-3 ovarian = tested on: SK-OV-3 ovarian
SN12C renal = tested on: SN12C renal
SNB-19 CNS = tested on: SNB-19 CNS
SNB-75 CNS = tested on: SNB-75 CNS
SR leukemia = tested on: SR leukemia
SW-620 colon = tested on: SW-620 colon
T-47D breast = tested on: T-47D breast
TK-10 renal = tested on: TK-10 renal
U251 CNS = tested on: U251 CNS
UACC-257 melanoma = tested on: UACC-257 melanoma
UACC-62 melanoma = tested on: UACC-62 melanoma
UO-31 renal = tested on: UO-31 renal

CCCn1cnc2c(c1=N)C(c1ccc(OC)cc1)c1sc3c(C)cccc3c1O2 (configuration not stated)
GI50 (786-0 renal): 523 nM | TGI (786-0 renal): 14400 nM | GI50 (A498 renal): 317 nM | TGI (A498 renal): 1030 nM | GI50 (A549 NSCLC): 717 nM | TGI (A549 NSCLC): 18100 nM | GI50 (ACHN renal): 604 nM | TGI (ACHN renal): 15200 nM | GI50 (BT-549 breast): 1350 nM | TGI (BT-549 breast): 12700 nM | GI50 (CAKI-1 renal): 208 nM | TGI (CAKI-1 renal): 15000 nM | GI50 (CCRF-CEM leukemia): 355 nM | GI50 (COLO 205 colon): 592 nM | TGI (COLO 205 colon): 4920 nM | GI50 (DU-145 prostate): 453 nM | TGI (DU-145 prostate): 15200 nM | GI50 (EKVX NSCLC): 598 nM | TGI (EKVX NSCLC): 20400 nM | GI50 (HCC-2998 colon): 886 nM | TGI (HCC-2998 colon): 4910 nM | GI50 (HCT-116 colon): 400 nM | TGI (HCT-116 colon): 10900 nM | GI50 (HCT-15 colon): 408 nM | TGI (HCT-15 colon): 8680 nM | GI50 (HL-60(TB) leukemia): 292 nM | TGI (HL-60(TB) leukemia): 2680 nM | GI50 (HOP-62 NSCLC): 406 nM | TGI (HOP-62 NSCLC): 16700 nM | GI50 (HOP-92 NSCLC): 1180 nM | TGI (HOP-92 NSCLC): 16600 nM | GI50 (HS 578T breast): 381 nM | TGI (HS 578T breast): 8870 nM | GI50 (HT29 colon): 557 nM | TGI (HT29 colon): 13700 nM | GI50 (IGROV1 ovarian): 472 nM | TGI (IGROV1 ovarian): 13900 nM | GI50 (K-562 leukemia): 261 nM | TGI (K-562 leukemia): 5520 nM | GI50 (KM12 colon): 474 nM | TGI (KM12 colon): 12000 nM | GI50 (LOX IMVI melanoma): 656 nM | TGI (LOX IMVI melanoma): 12300 nM | GI50 (M14 melanoma): 401 nM | TGI (M14 melanoma): 12500 nM | GI50 (MCF7 breast): 303 nM | TGI (MCF7 breast): 12900 nM | GI50 (MDA-MB-231 breast): 1150 nM | TGI (MDA-MB-231 breast): 15900 nM | GI50 (MDA-MB-435): 187 nM | TGI (MDA-MB-435): 484 nM | GI50 (MOLT-4 leukemia): 569 nM | TGI (MOLT-4 leukemia): 12700 nM | GI50 (NCI-H226 lung): 419 nM | TGI (NCI-H226 lung): 9600 nM | GI50 (NCI-H23 lung): 535 nM | TGI (NCI-H23 lung): 14200 nM | GI50 (NCI-H460 lung): 381 nM | TGI (NCI-H460 lung): 10500 nM | GI50 (NCI-H522 lung): 409 nM | TGI (NCI-H522 lung): 7590 nM | GI50 (NCI/ADR-RES ovarian): 359 nM | TGI (NCI/ADR-RES ovarian): 12400 nM | GI50 (OVCAR-3 ovarian): 379 nM | TGI (OVCAR-3 ovarian): 5920 nM | GI50 (OVCAR-4 ovarian): 1610 nM | TGI (OVCAR-4 ovarian): 20700 nM | GI50 (OVCAR-5 ovarian): 1160 nM | TGI (OVCAR-5 ovarian): 15000 nM | GI50 (OVCAR-8 ovarian): 564 nM | TGI (OVCAR-8 ovarian): 18800 nM | GI50 (PC-3 prostate): 415 nM | TGI (PC-3 prostate): 16000 nM | GI50 (RPMI-8226 leukemia): 369 nM | TGI (RPMI-8226 leukemia): 4450 nM | GI50 (RXF 393 renal): 215 nM | TGI (RXF 393 renal): 603 nM | GI50 (SF-268 CNS): 787 nM | TGI (SF-268 CNS): 14900 nM | GI50 (SF-295 CNS): 368 nM | TGI (SF-295 CNS): 11600 nM | GI50 (SF-539 CNS): 301 nM | TGI (SF-539 CNS): 1270 nM | GI50 (SK-MEL-2 melanoma): 719 nM | TGI (SK-MEL-2 melanoma): 21000 nM | GI50 (SK-MEL-28 melanoma): 3340 nM | TGI (SK-MEL-28 melanoma): 21600 nM | GI50 (SK-MEL-5 melanoma): 411 nM | TGI (SK-MEL-5 melanoma): 12500 nM | GI50 (SK-OV-3 ovarian): 657 nM | TGI (SK-OV-3 ovarian): 22200 nM | GI50 (SN12C renal): 635 nM | TGI (SN12C renal): 15500 nM | GI50 (SNB-19 CNS): 490 nM | TGI (SNB-19 CNS): 16000 nM | GI50 (SNB-75 CNS): 209 nM | TGI (SNB-75 CNS): 1700 nM | GI50 (SR leukemia): 349 nM | GI50 (SW-620 colon): 517 nM | TGI (SW-620 colon): 17300 nM | GI50 (T-47D breast): 527 nM | TGI (T-47D breast): 30400 nM | GI50 (TK-10 renal): 8090 nM | TGI (TK-10 renal): 33900 nM | GI50 (U251 CNS): 445 nM | TGI (U251 CNS): 12900 nM | GI50 (UACC-257 melanoma): 12900 nM | TGI (UACC-257 melanoma): 35500 nM | GI50 (UACC-62 melanoma): 439 nM | TGI (UACC-62 melanoma): 15000 nM | GI50 (UO-31 renal): 406 nM | TGI (UO-31 renal): 16500 nM
